Test results taken from ChEMBL document CHEMBL3885881, “DrugMatrix”.

Species: Rattus norvegicus
Assay: DrugMatrix - Regimen: Daily Repeat
Format: toxicity, organism-based, Sprague-Dawley
Parameters: regimen Daily Repeat, gender Male, age 6-8 weeks
Settings: in vivo, po, route oral GAVAGE, vehicle .5 % CMC; for BASOPHIL / EOSINOPHIL / ERYTHROCYTE COUNT / HEMATOCRIT / HEMOGLOBIN / LEUKOCYTE COUNT / LYMPHOCYTE / MEAN CORPUSCULAR HEMOGLOBIN / MEAN CORPUSCULAR HEMOGLOBIN CONCENTRATION / MEAN CORPUSCULAR VOLUME / MONOCYTE / NEUTROPHIL / PLATELET COUNT: tissue Blood; for ALANINE AMINOTRANSFERASE / ALBUMIN / ALKALINE PHOSPHATASE / ASPARTATE AMINOTRANSFERASE / BLOOD UREA NITROGEN / CHOLESTEROL / CREATINE PHOSPHOKINASE / CREATININE / GLUCOSE / PHOSPHORUS / POTASSIUM / SODIUM / TOTAL BILIRUBIN / TOTAL PROTEIN: tissue Plasma
[1] = 0 mg/kg, 72 h, dose level Control, time 3 day
[2] = 0 mg/kg, 120 h, dose level Control, time 5 day
[3] = 45 mg/kg, 72 h, dose level High, time 3 day
[4] = 45 mg/kg, 120 h, dose level High, time 5 day
[5] = […], 72 h, dose 1.1 mg/Kg, dose level Low, time 3 day
[6] = […], 120 h, dose 1.1 mg/Kg, dose level Low, time 5 day

For COc1cc(NC(C)CCCN)c2ncccc2c1 (configuration not stated) [PRIMAQUINE], the BASOPHIL [1] was 0%, the EOSINOPHIL [1] was 0% and the “ERYTHROCYTE COUNT” value [1] was 6.19 x10E6/uL. For the same compound, the HEMATOCRIT [1] was 36.94%, the HEMOGLOBIN [1] was 14.58 G/DL and the “LEUKOCYTE COUNT” value [1] was 11.54 x10E3/uL. The LYMPHOCYTE [1] was 84.8%, the “MEAN CORPUSCULAR HEMOGLOBIN” value [1] was 23.58 pg and the “MEAN CORPUSCULAR HEMOGLOBIN CONCENTRATION” value [1] was 39.44 G/DL. For the same compound, the “MEAN CORPUSCULAR VOLUME” value [1] was 59.76 fL, the MONOCYTE [1] was 1.4% and the NEUTROPHIL [1] was 13.8%. For the same compound, the “PLATELET COUNT” value [1] was 1068.8 x10E3/uL, the “ALANINE AMINOTRANSFERASE” value [1] was 38.17 u/L and the ALBUMIN [1] was 3.88 G/DL. For the same compound, the “ALKALINE PHOSPHATASE” value [1] was 391.33 u/L, the “ASPARTATE AMINOTRANSFERASE” value [1] was 69.83 u/L and the “BLOOD UREA NITROGEN” value [1] was 15 mg/dL. For the same compound, the CHOLESTEROL [1] was 72.17 mg/dL, the “CREATINE PHOSPHOKINASE” value [1] was 174.33 u/L and the CREATININE [1] was 0.58 mg/dL. For the same compound, the GLUCOSE [1] was 192.67 mg/dL, the PHOSPHORUS [1] was 10.52 mg/dL and the POTASSIUM [1] was 6.8 MEQ/L. The SODIUM [1] was 149.67 MEQ/L, the “TOTAL BILIRUBIN” value [1] was 0.78 mg/dL and the “TOTAL PROTEIN” value [1] was 6.28 G/DL. The BASOPHIL [2] was 0%, the EOSINOPHIL [2] was 0.17% and the “ERYTHROCYTE COUNT” value [2] was 6.72 x10E6/uL. For the same compound, the HEMATOCRIT [2] was 40.02%, the HEMOGLOBIN [2] was 15.83 G/DL and the “LEUKOCYTE COUNT” value [2] was 9.5 x10E3/uL. The LYMPHOCYTE [2] was 87.17%, the “MEAN CORPUSCULAR HEMOGLOBIN” value [2] was 23.57 pg and the “MEAN CORPUSCULAR HEMOGLOBIN CONCENTRATION” value [2] was 39.62 G/DL. The “MEAN CORPUSCULAR VOLUME” value [2] was 59.55 fL, the MONOCYTE [2] was 1.67% and the NEUTROPHIL [2] was 11%. The “PLATELET COUNT” value [2] was 1053.67 x10E3/uL, the “ALANINE AMINOTRANSFERASE” value [2] was 26.33 u/L and the ALBUMIN [2] was 4.02 G/DL. The “ALKALINE PHOSPHATASE” value [2] was 316.67 u/L, the “ASPARTATE AMINOTRANSFERASE” value [2] was 61.33 u/L and the “BLOOD UREA NITROGEN” value [2] was 18.67 mg/dL. The CHOLESTEROL [2] was 65.17 mg/dL, the “CREATINE PHOSPHOKINASE” value [2] was 161.17 u/L and the CREATININE [2] was 0.75 mg/dL. It also gave a GLUCOSE [2] of 177.33 mg/dL, a PHOSPHORUS [2] of 9.72 mg/dL and a POTASSIUM [2] of 6.18 MEQ/L. For the same compound, the SODIUM [2] was 150.5 MEQ/L, the “TOTAL BILIRUBIN” value [2] was 0.68 mg/dL and the “TOTAL PROTEIN” value [2] was 6.55 G/DL. The BASOPHIL [3] was 0%, the EOSINOPHIL [3] was 0.33% and the “ERYTHROCYTE COUNT” value [3] was 6.7 x10E6/uL. The HEMATOCRIT [3] was 40.07%, the HEMOGLOBIN [3] was 15.73 G/DL and the “LEUKOCYTE COUNT” value [3] was 10.6 x10E3/uL. For the same compound, the LYMPHOCYTE [3] was 76.67%, the “MEAN CORPUSCULAR HEMOGLOBIN” value [3] was 23.53 pg and the “MEAN CORPUSCULAR HEMOGLOBIN CONCENTRATION” value [3] was 39.3 G/DL. For the same compound, the “MEAN CORPUSCULAR VOLUME” value [3] was 59.87 fL, the MONOCYTE [3] was 2.67% and the NEUTROPHIL [3] was 20.33%. For the same compound, the “PLATELET COUNT” value [3] was 1053 x10E3/uL, the “ALANINE AMINOTRANSFERASE” value [3] was 83.33 u/L and the ALBUMIN [3] was 3.73 G/DL. For the same compound, the “ALKALINE PHOSPHATASE” value [3] was 304.67 u/L, the “ASPARTATE AMINOTRANSFERASE” value [3] was 358.33 u/L and the “BLOOD UREA NITROGEN” value [3] was 10 mg/dL. For the same compound, the CHOLESTEROL [3] was 77.67 mg/dL, the “CREATINE PHOSPHOKINASE” value [3] was 213.33 u/L and the CREATININE [3] was 0.67 mg/dL. The GLUCOSE [3] was 176 mg/dL, the PHOSPHORUS [3] was 11.23 mg/dL and the POTASSIUM [3] was 6.27 MEQ/L. For the same compound, the SODIUM [3] was 148.33 MEQ/L, the “TOTAL BILIRUBIN” value [3] was 0.4 mg/dL and the “TOTAL PROTEIN” value [3] was 6.03 G/DL. The BASOPHIL [4] was 0%, the EOSINOPHIL [4] was 0% and the “ERYTHROCYTE COUNT” value [4] was 5.75 x10E6/uL. For the same compound, the HEMATOCRIT [4] was 35.53%, the HEMOGLOBIN [4] was 14.07 G/DL and the “LEUKOCYTE COUNT” value [4] was 13.03 x10E3/uL. For the same compound, the LYMPHOCYTE [4] was 79.67%, the “MEAN CORPUSCULAR HEMOGLOBIN” value [4] was 24.47 pg and the “MEAN CORPUSCULAR HEMOGLOBIN CONCENTRATION” value [4] was 39.6 G/DL. The “MEAN CORPUSCULAR VOLUME” value [4] was 61.83 fL, the MONOCYTE [4] was 3.67% and the NEUTROPHIL [4] was 16.67%. The “PLATELET COUNT” value [4] was 778.33 x10E3/uL, the “ALANINE AMINOTRANSFERASE” value [4] was 35.67 u/L and the ALBUMIN [4] was 3.63 G/DL. For the same compound, the “ALKALINE PHOSPHATASE” value [4] was 336.33 u/L, the “ASPARTATE AMINOTRANSFERASE” value [4] was 78.67 u/L and the “BLOOD UREA NITROGEN” value [4] was 12 mg/dL. For the same compound, the CHOLESTEROL [4] was 67.33 mg/dL, the “CREATINE PHOSPHOKINASE” value [4] was 151.67 u/L and the CREATININE [4] was 0.57 mg/dL. The GLUCOSE [4] was 177 mg/dL, the PHOSPHORUS [4] was 10.23 mg/dL and the POTASSIUM [4] was 6.03 MEQ/L. For the same compound, the SODIUM [4] was 149 MEQ/L, the “TOTAL BILIRUBIN” value [4] was 0.47 mg/dL and the “TOTAL PROTEIN” value [4] was 5.83 G/DL. For the same compound, the BASOPHIL [5] was 0%, the EOSINOPHIL [5] was 1% and the “ERYTHROCYTE COUNT” value [5] was 5.53 x10E6/uL. The HEMATOCRIT [5] was 33.77%, the HEMOGLOBIN [5] was 13.73 G/DL and the “LEUKOCYTE COUNT” value [5] was 11.03 x10E3/uL. For the same compound, the LYMPHOCYTE [5] was 85%, the “MEAN CORPUSCULAR HEMOGLOBIN” value [5] was 24.87 pg and the “MEAN CORPUSCULAR HEMOGLOBIN CONCENTRATION” value [5] was 40.77 G/DL. For the same compound, the “MEAN CORPUSCULAR VOLUME” value [5] was 61 fL, the MONOCYTE [5] was 2% and the NEUTROPHIL [5] was 12%. For the same compound, the “PLATELET COUNT” value [5] was 1053.67 x10E3/uL, the “ALANINE AMINOTRANSFERASE” value [5] was 32.33 u/L and the ALBUMIN [5] was 3.57 G/DL. For the same compound, the “ALKALINE PHOSPHATASE” value [5] was 308 u/L, the “ASPARTATE AMINOTRANSFERASE” value [5] was 56.33 u/L and the “BLOOD UREA NITROGEN” value [5] was 11.67 mg/dL. The CHOLESTEROL [5] was 75.33 mg/dL, the “CREATINE PHOSPHOKINASE” value [5] was 161.67 u/L and the CREATININE [5] was 0.6 mg/dL. For the same compound, the GLUCOSE [5] was 178 mg/dL, the PHOSPHORUS [5] was 11.23 mg/dL and the POTASSIUM [5] was 6.57 MEQ/L. For the same compound, the SODIUM [5] was 148 MEQ/L, the “TOTAL BILIRUBIN” value [5] was 0.4 mg/dL and the “TOTAL PROTEIN” value [5] was 5.63 G/DL. The BASOPHIL [6] was 0%, the EOSINOPHIL [6] was 0.33% and the “ERYTHROCYTE COUNT” value [6] was 6.36 x10E6/uL. The HEMATOCRIT [6] was 37.73%, the HEMOGLOBIN [6] was 15.4 G/DL and the “LEUKOCYTE COUNT” value [6] was 11.63 x10E3/uL. For the same compound, the LYMPHOCYTE [6] was 91.33%, the “MEAN CORPUSCULAR HEMOGLOBIN” value [6] was 24.37 pg and the “MEAN CORPUSCULAR HEMOGLOBIN CONCENTRATION” value [6] was 41 G/DL. The “MEAN CORPUSCULAR VOLUME” value [6] was 59.37 fL, the MONOCYTE [6] was 1.33% and the NEUTROPHIL [6] was 7%. The “PLATELET COUNT” value [6] was 1065 x10E3/uL, the “ALANINE AMINOTRANSFERASE” value [6] was 27 u/L and the ALBUMIN [6] was 3.9 G/DL. The “ALKALINE PHOSPHATASE” value [6] was 323 u/L, the “ASPARTATE AMINOTRANSFERASE” value [6] was 65.67 u/L and the “BLOOD UREA NITROGEN” value [6] was 15.33 mg/dL. The CHOLESTEROL [6] was 71 mg/dL, the “CREATINE PHOSPHOKINASE” value [6] was 141.33 u/L and the CREATININE [6] was 0.6 mg/dL. For the same compound, the GLUCOSE [6] was 169.33 mg/dL, the PHOSPHORUS [6] was 10.37 mg/dL and the POTASSIUM [6] was 6.4 MEQ/L. For the same compound, the SODIUM [6] was 151.67 MEQ/L, the “TOTAL BILIRUBIN” value [6] was 0.43 mg/dL and the “TOTAL PROTEIN” value [6] was 6.23 G/DL.
